Data published in the supplement of paper PMC10307832.

Tests used:
Test in all cases: relative viability (nuclei count vs DMSO), 5 days (fraction); higher = more cells survive
BEN = system: BEN
Method in brief: (§1)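 After 5 days of treatment, lung cancer cells in 1536-well plates were fixed and stained in a single step (final 0.05% Triton X-100, 1% formaldehyde, 1 ug/ml Hoechst) and their nuclei counted on 4× images. Treatment had been applied by pin tool the day after seeding as one drug alone or as a fixed anchor-drug dose with five library-drug doses (not always all listed) in √10 steps. Relative viability is the nuclei count of treated wells divided by that of vehicle wells, and values are medians of duplicate plates.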

ChaGo-K-1 = system: ChaGo-K-1
Method in brief: as §1

HCC-78 = system: HCC-78
Method in brief: as §1

LC-2-ad = system: LC-2-ad
Method in brief: as §1

LCLC-97TM1 = system: LCLC-97TM1
Method in brief: as §1

LK-2 = system: LK-2
Method in brief: as §1

LU99A = system: LU99A
Method in brief: as §1

LXF-289 = system: LXF-289
Method in brief: as §1

NCI-H1355 = system: NCI-H1355
Method in brief: as §1

NCI-H1651 = system: NCI-H1651
Method in brief: as §1

NCI-H1666 = system: NCI-H1666
Method in brief: as §1

NCI-H1944 = system: NCI-H1944
Method in brief: as §1

NCI-H1975 = system: NCI-H1975
Method in brief: as §1

NCI-H2087 = system: NCI-H2087
Method in brief: as §1

NCI-H2342 = system: NCI-H2342
Method in brief: as §1

NCI-H358 = system: NCI-H358
Method in brief: as §1

NCI-H596 = system: NCI-H596
Method in brief: as §1

NCI-H650 = system: NCI-H650
Method in brief: as §1

NCI-H661 = system: NCI-H661
Method in brief: as §1

NCI-H838 = system: NCI-H838
Method in brief: as §1

PC-3 [JPC-3] = system: PC-3 [JPC-3]
Method in brief: as §1

SK-MES-1 = system: SK-MES-1
Method in brief: as §1

Structure (SMILES): O=c1cc(-c2cccc3c2Sc2ccccc2S3)oc(N2CCOCC2)c1 + COc1cccc2cc(-c3nc([C@H]4CC[C@H](C(=O)O)CC4)n4ncnc(N)c34)[nH]c12 [OSI-027] (partner 0.5 µM)
- relative viability (BEN; first compound 0.08 µM): 0.279
- relative viability (BEN; first compound 0.253 µM): 0.268
- relative viability (BEN; first compound 0.8 µM): 0.281
- relative viability (BEN; first compound 2.53 µM): 0.298
- relative viability (BEN; first compound 8 µM): 0.321
- relative viability (ChaGo-K-1; first compound 0.08 µM): 0.524
- relative viability (ChaGo-K-1; first compound 0.253 µM): 0.615
- relative viability (ChaGo-K-1; first compound 0.8 µM): 0.479
- relative viability (ChaGo-K-1; first compound 2.53 µM): 0.385
- relative viability (ChaGo-K-1; first compound 8 µM): 0.63
- relative viability (HCC-78; first compound 0.08 µM): 0.341
- relative viability (HCC-78; first compound 0.253 µM): 0.385
- relative viability (HCC-78; first compound 0.8 µM): 0.295
- relative viability (HCC-78; first compound 2.53 µM): 0.344
- relative viability (HCC-78; first compound 8 µM): 0.339
- relative viability (LC-2-ad; first compound 0.08 µM): 0.814
- relative viability (LC-2-ad; first compound 0.253 µM): 0.934
- relative viability (LC-2-ad; first compound 0.8 µM): 0.792
- relative viability (LC-2-ad; first compound 2.53 µM): 0.741
- relative viability (LC-2-ad; first compound 8 µM): 0.727
- relative viability (LCLC-97TM1; first compound 0.08 µM): 0.48
- relative viability (LCLC-97TM1; first compound 0.253 µM): 0.407
- relative viability (LCLC-97TM1; first compound 0.8 µM): 0.539
- relative viability (LCLC-97TM1; first compound 2.53 µM): 0.519
- relative viability (LCLC-97TM1; first compound 8 µM): 0.575
- relative viability (LK-2; first compound 0.08 µM): 0.174
- relative viability (LK-2; first compound 0.253 µM): 0.189
- relative viability (LK-2; first compound 0.8 µM): 0.188
- relative viability (LK-2; first compound 2.53 µM): 0.175
- relative viability (LK-2; first compound 8 µM): 0.176
- relative viability (LU99A; first compound 0.08 µM): 0.282
- relative viability (LU99A; first compound 0.253 µM): 0.285
- relative viability (LU99A; first compound 0.8 µM): 0.308
- relative viability (LU99A; first compound 2.53 µM): 0.335
- relative viability (LU99A; first compound 8 µM): 0.303
- relative viability (LXF-289; first compound 0.08 µM): 0.812
- relative viability (LXF-289; first compound 0.253 µM): 0.811
- relative viability (LXF-289; first compound 0.8 µM): 0.871
- relative viability (LXF-289; first compound 2.53 µM): 0.697
- relative viability (LXF-289; first compound 8 µM): 0.87
- relative viability (NCI-H1355; first compound 0.08 µM): 0.402
- relative viability (NCI-H1355; first compound 0.253 µM): 0.376
- relative viability (NCI-H1355; first compound 0.8 µM): 0.335
- relative viability (NCI-H1355; first compound 2.53 µM): 0.338
- relative viability (NCI-H1355; first compound 8 µM): 0.33
- relative viability (NCI-H1651; first compound 0.08 µM): 0.625
- relative viability (NCI-H1651; first compound 0.253 µM): 0.767
- relative viability (NCI-H1651; first compound 0.8 µM): 0.711
- relative viability (NCI-H1651; first compound 2.53 µM): 0.6
- relative viability (NCI-H1651; first compound 8 µM): 0.702
- relative viability (NCI-H1666; first compound 0.08 µM): 0.838
- relative viability (NCI-H1666; first compound 0.253 µM): 1.06
- relative viability (NCI-H1666; first compound 0.8 µM): 0.923
- relative viability (NCI-H1666; first compound 2.53 µM): 0.832
- relative viability (NCI-H1666; first compound 8 µM): 0.885
- relative viability (NCI-H1944; first compound 0.08 µM): 0.376
- relative viability (NCI-H1944; first compound 0.253 µM): 0.403
- relative viability (NCI-H1944; first compound 0.8 µM): 0.367
- relative viability (NCI-H1944; first compound 2.53 µM): 0.34
- relative viability (NCI-H1944; first compound 8 µM): 0.38
- relative viability (NCI-H1975; first compound 0.08 µM): 0.74
- relative viability (NCI-H1975; first compound 0.253 µM): 0.993
- relative viability (NCI-H1975; first compound 0.8 µM): 0.793
- relative viability (NCI-H1975; first compound 2.53 µM): 0.587
- relative viability (NCI-H1975; first compound 8 µM): 0.503
- relative viability (NCI-H2087; first compound 0.08 µM): 0.352
- relative viability (NCI-H2087; first compound 0.253 µM): 0.649
- relative viability (NCI-H2087; first compound 0.8 µM): 0.589
- relative viability (NCI-H2087; first compound 2.53 µM): 0.416
- relative viability (NCI-H2087; first compound 8 µM): 0.452
- relative viability (NCI-H2342; first compound 0.08 µM): 0.569
- relative viability (NCI-H2342; first compound 0.253 µM): 0.607
- relative viability (NCI-H2342; first compound 0.8 µM): 0.545
- relative viability (NCI-H2342; first compound 2.53 µM): 0.594
- relative viability (NCI-H2342; first compound 8 µM): 0.568
- relative viability (NCI-H358; first compound 0.08 µM): 0.836
- relative viability (NCI-H358; first compound 0.253 µM): 0.999
- relative viability (NCI-H358; first compound 0.8 µM): 0.815
- relative viability (NCI-H358; first compound 2.53 µM): 0.807
- relative viability (NCI-H358; first compound 8 µM): 0.869
- relative viability (NCI-H596; first compound 0.08 µM): 0.69
- relative viability (NCI-H596; first compound 0.253 µM): 0.803
- relative viability (NCI-H596; first compound 0.8 µM): 0.695
- relative viability (NCI-H596; first compound 2.53 µM): 0.683
- relative viability (NCI-H596; first compound 8 µM): 0.662
- relative viability (NCI-H650; first compound 0.08 µM): 0.469
- relative viability (NCI-H650; first compound 0.253 µM): 0.548
- relative viability (NCI-H650; first compound 0.8 µM): 0.508
- relative viability (NCI-H650; first compound 8 µM): 0.562
- relative viability (NCI-H661; first compound 0.08 µM): 0.736
- relative viability (NCI-H661; first compound 0.253 µM): 0.739
- relative viability (NCI-H661; first compound 0.8 µM): 0.71
- relative viability (NCI-H661; first compound 2.53 µM): 0.642
- relative viability (NCI-H661; first compound 8 µM): 0.647
- relative viability (NCI-H838; first compound 0.08 µM): 0.344
- relative viability (NCI-H838; first compound 0.253 µM): 0.417
- relative viability (NCI-H838; first compound 0.8 µM): 0.312
- relative viability (NCI-H838; first compound 2.53 µM): 0.339
- relative viability (NCI-H838; first compound 8 µM): 0.41
- relative viability (PC-3 [JPC-3]; first compound 0.08 µM): 0.763
- relative viability (PC-3 [JPC-3]; first compound 0.253 µM): 0.8
- relative viability (PC-3 [JPC-3]; first compound 0.8 µM): 0.783
- relative viability (PC-3 [JPC-3]; first compound 2.53 µM): 0.698
- relative viability (PC-3 [JPC-3]; first compound 8 µM): 0.787
- relative viability (SK-MES-1; first compound 0.08 µM): 0.534
- relative viability (SK-MES-1; first compound 0.253 µM): 0.633
- relative viability (SK-MES-1; first compound 0.8 µM): 0.601
- relative viability (SK-MES-1; first compound 2.53 µM): 0.521
- relative viability (SK-MES-1; first compound 8 µM): 0.547
